Measured values published in patent US20040185566A1, “Polypeptides toxic to nematodes and methods of use” (priority 2003, published 2004).
Like-named read-outs stand apart in the source and are kept apart here. Where a SMILES comes first, the peptide text is derived from it. [ ]: non-standard residue; d: D form. The star is where a group is joined. Sta = CC(C)C[C@H](N)[C@@H](O)CC(=O)O; Isovaleryl = CC(C)CC(=O)*

Target: SMP #1 (Serratia marcescens, UniProt P23694, N428Q/P266L)
Type: biochemical, S. marcescens NRRL B-23112

CC(C)C[C@H](NC(=O)[C@@H](O)[C@H](N)Cc1ccccc1)C(=O)O [bestatin]
inhibition of SMP #1 proteolytic activity (bestatin 80 μg/ml): not inhibited

CC(C)C[C@H](NC(=O)[C@@H](NC(=O)N[C@@H](Cc1ccccc1)C(=O)O)[C@@H]1CCN=C(N)N1)C(=O)N[C@H](C=O)Cc1ccccc1 [chymostatin]
inhibition of SMP #1 proteolytic activity (chymostatin 50 μg/ml): not inhibited

CC(=O)N[C@@H](CC(C)C)C(=O)N[C@@H](CC(C)C)C(=O)N[C@H](C=O)CCCNC(=N)N [leupeptin]
inhibition of SMP #1 proteolytic activity (leupeptin 4 μg/ml): not inhibited

CC(C)CC(=O)N[C@H](C(=O)N[C@H](C(=O)N[C@@H](CC(C)C)[C@@H](O)CC(=O)N[C@@H](C)C(=O)N[C@@H](CC(C)C)[C@@H](O)CC(=O)O)C(C)C)C(C)C [pepstatin] (Isovaleryl-VV[Sta]A[Sta]-OH)
inhibition of SMP #1 proteolytic activity (pepstatin 4 μg/ml): not inhibited

O=S(=O)(F)Cc1ccccc1 [phenylmethylsulfonyl fluoride]
inhibition of SMP #1 proteolytic activity (phenylmethylsulfonyl fluoride 400 μ/ml): not inhibited

CC(C)C[C@H](NP(=O)(O)O[C@@H]1O[C@@H](C)[C@H](O)[C@@H](O)[C@H]1O)C(=O)N[C@@H](Cc1c[nH]c2ccccc12)C(=O)O [phosphoramidon]
inhibition of SMP #1 proteolytic activity (phosphoramidon 660 μ/ml): not inhibited
